Data from patent EP4620955A1, “MC4R ANTAGONIST COMPOUND, PHARMACEUTICAL COMPOSITION AND PHARMACEUTICAL USE THEREOF” (Changchun Genescience Pharmaceutical Co., Ltd., priority 2022, dated 2024).

Biological target: T1, MC4R (Homo sapiens, UniProt P32245)
T1 construct: expressed in transfected cells; host or cells: flipin-293-MC4 (Flp-In 293 host, hygromycin selection)
Assay: Assay of MC4R antagonist activity in cells in vitro (cAMP assay, Melanotan I stimulation)
Format: cell-based
Conditions: flipin-293-MC4 cell line, Melanotan I as agonist
Procedure: Test Example 1: Assay of MC4R antagonist activity in cells in vitro
a. Experimental consumables:
b. Experimental steps • ✔ Cell line: flipin-293-MC4 • ✔ Cell culture medium: DMEM, 10% fetal bovine serum, 1 × PS, 200 µg/mL hygromycin • ✔ Experimental buffer: HBSS, 20 mM HEPES, 0.1% BSA, 500 µM IBMX • ✔ Positive compound: ML00253764 c. Antagonist detection • 1. Digested cells were suspended in the experimental buffer, and then inoculated into the 384-well cell culture plate. • 2. The to-be-detected compound was added to the cell plate, and incubated at 37°C for 10 min. • 3. Melanotan I was added to the cell plate, and incubated at 37°C for 30 min. • 4. Two detection reagents EU cAMP tracer and ulight anti camp were thawed and diluted with a lysis solution in the kit. • 5. The diluted detection reagents were added to the cell plate and incubated at room temperature for 1 h. • 6. Reading was carried out by Envision. (Excitation light: 340 nm, emission light: 615 nm and 665 nm) d. Data analysis • 1. %Inhibition calculation: %Inhibition = (Signalcmpd−SignalAve_VC)/(SignalAve_PC−SignalAve_VC) × 100. [formula] • Signalcmpd: compound signal value; • SignalAve_VC: negative control signal value; • SignalAve_PC: positive control signal value; • %inhibition: inhibition percentage. • 2. Calculation of IC50 of the compound using the nonlinear fitting equation in GraphPad: Y = Bottom + (Top−Bottom)/(1+10^(∧)((LogIC50−X)×HillSlope)) [formula] X: logarithmic value of the concentration of the compound; Y: inhibition percentage

T1 sequence (P32245 whole entry): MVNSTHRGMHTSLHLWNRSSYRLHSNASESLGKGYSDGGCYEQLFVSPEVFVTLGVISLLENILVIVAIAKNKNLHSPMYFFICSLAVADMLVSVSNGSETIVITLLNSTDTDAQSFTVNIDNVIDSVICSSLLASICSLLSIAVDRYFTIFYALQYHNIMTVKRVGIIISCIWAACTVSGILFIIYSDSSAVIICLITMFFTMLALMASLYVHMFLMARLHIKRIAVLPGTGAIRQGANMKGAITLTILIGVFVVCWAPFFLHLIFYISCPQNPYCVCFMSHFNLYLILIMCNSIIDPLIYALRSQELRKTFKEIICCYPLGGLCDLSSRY

| Compound | IC50 [nM] |
| --- | --- |
| COc1cc([C@@H](C)C(=O)N2C[C@@H](Nc3ccc4cc(OC)c(F)cc4n3)C3(CC3)C2)c(F)cn1 [Compound 117, (R)-2-(5-fluoro-2-methoxypyridine-4-yl)-1-((S)-7-((7-fluoro-6-methoxyquinoline-2-yl)amino)-5-azaspiro[2.4]heptane-5-yl)propan-1-one] | 1.57 |
| COc1cc([C@@H](C)C(=O)N2C[C@@H](Nc3ccc(-c4nc(C)n(C)n4)c(C)n3)C3(CC3)C2)c(F)cn1 [Compound 132, (2R)-1-[(7S)-7-{[5-(1,5-dimethyl-1H-1,2,4-triazole-3-yl)-6-methylpyridine-2-yl]amino}-5-azaspiro[2.4]heptane-5-yl]-2-(5-fluoro-2-methoxypyridine-4-yl)propan-1-one] | 1.06 |
| COc1ccc2nc(N[C@@H]3CN(C(=O)[C@H](C)c4cc(OC)ncc4Cl)CC34CC4)nc(C)c2c1 [Compound 118] | 3.75 |
| COc1cc([C@@H](C)C(=O)N2C[C@@H](Nc3ccc(-c4cnn(C)c4)c(C)n3)C3(CC3)C2)c(Cl)cn1 [Compound 144] | 1.83 |
| COc1cc([C@@H](C)C(=O)N2C[C@@H](Nc3ccc(-c4cnn(C)c4)c(C)n3)C3(CC3)C2)c(F)cn1 [Compound 143, (2R)-2-(5-fluoro-2-methoxypyridine-4-yl)-1-((7S)-7-((6-methyl-5-(1-methyl-1H-pyrazol-4-yl)pyridine-2-yl)amino)-5-azaspiro[2.4]heptane-5-yl)propan-1-one] | 5.73 |
| COc1cc([C@@H](C)C(=O)N2C[C@@H](Nc3ccc(-c4cn(C)c(C)n4)c(C)n3)C3(CC3)C2)c(F)cn1 [Compound 149, (R)-1-((S)-7-((5-(1,2-dimethyl-1H-imidazol-4-yl)-6-methylpyridine-2-yl)amino)-5-azaspiro[2.4]hept-5-yl)-2-(5-fluoro-2-methoxypyridine-4-yl)propan-1-one] | 1.74 |
| COc1cc([C@@H](C)C(=O)N2CCC(Nc3ccc(-c4ncccn4)c(C)n3)C2)c(F)cn1 (stereo partly drawn) [Compound 001, (2R)-2-(5-fluoro-2-methoxypyridine-4-yl)-1-(3-((6-methyl-5-(pyrimidine-2-yl)pyridine-2-yl)amino)pyrrolidine-1-yl)propyl-1-one] | 16.4 |
| COc1cc([C@@H](C)C(=O)N2C[C@@H](Nc3ccc(-c4nc(C(F)F)n(C)n4)c(C)n3)C3(CC3)C2)c(F)cn1 [Compound 119, (R)-1-((S)-7-((5-(5-(difluoromethyl)-1-methyl-1H-1,2,4-triazole-3-yl)-6-methylpyridine-2-yl)amino)-5-azaspiro[2.4]heptane-5-yl)-2-(5-fluoro-2-methoxypyridine-4-yl)propan-1-one] | 1.71 |
| COc1cc([C@@H](C)C(=O)N2C[C@@H](Nc3ccc(-c4ncn(C)n4)c(C)n3)C3(CC3)C2)c(F)cn1 [Compound 136, (2R)-2-(5-fluoro-2-methoxypyridine-4-yl)-1-[(7S)-7-{[6-methyl-5-(1-methyl-1H-1,2,4-triazole-3-yl)pyridine-2-yl]amino}-5-azaspiro[2.4]heptane-5-yl]propan-1-one] | 1.28 |
| COc1cc([C@@H](C)C(=O)N2C[C@@H](Nc3ccc(-c4ncn(C)n4)c(C)n3)C3(CC3)C2)c(Cl)cn1 [Compound 142, (2R)-2-(5-chloro-2-methoxypyridine-4-yl)-1-[(7S)-7-{[6-methyl-5-(1-methyl-1H-1,2,4-triazole-3-yl)pyridine-2-yl]amino}-5-azaspiro[2.4]heptane-5-yl]propan-1-one] | 3.29 |
| COc1cc([C@@H](C)C(=O)N2CC[C@H](Nc3ccc(-c4nccc(C#N)n4)c(C)n3)C2)c(Cl)cn1 [Compound 113, 2-(6-(((S)-1-((R)-2-(5-chloro-2-methoxypyridine-4-yl)propionyl)pyrrolidine-3-yl)amino)-2-methylpyridine-3-yl)pyrimidine-4-nitrile] | 0.9 |
| COc1ccc2nc(N[C@@H]3CN(C(=O)[C@H](C)c4cc(OC)ncc4F)CC34CC4)nc(C)c2c1 [Compound 115, (R)-2-(5-fluoro-2-methoxypyridine-4-yl)-1-((S)-7-((6-methoxy-4-methylquinazoline-2-yl)amino)-5-azaspiro[2.4]heptane-5-yl)propan-1-one] | 2.78 |
| COc1cc([C@@H](C)C(=O)N2C[C@@H](Nc3ccc(-c4cn(C(F)F)nn4)c(C)n3)C3(CC3)C2)c(Cl)cn1 [Compound 196, (R)-2-(5-chloro-2-methoxypyridine-4-yl)-1-((S)-7-((S-(1-(difluoromethyl)-1H-1,2,3-triazol-4-yl)-6-methylpyridine-2-yl)amino)-5-azaspiro[2.4]hept-5-yl)propan-1-one] | 4.88 |

Next, values leading:

| IC50 [nM] | Compound |
| --- | --- |
| 2.11 | COc1cc([C@@H](C)C(=O)N2C[C@@H](Nc3ccc(-c4cn5c(n4)CCC5)c(C)n3)C3(CC3)C2)c(Cl)cn1 [Compound 188, (R)-2-(5-chloro-2-methoxypyridine-4-yl)-1-((S)-7-((5-(6,7-dihydro-5H-pyrrolo[1,2-a]imidazol-2-yl)-6-methylpyridine-2-yl)amino)-5-azaspiro[2.4]hept-5-yl)propan-1-one] |
| 3.04 | COc1cc([C@@H](C)C(=O)N2C[C@@H](Nc3ccc(-c4nccc(C(F)F)n4)c(C)n3)C3(CC3)C2)c(F)cn1 [Compound 155, (R)-1-((S)-7-((5-(4-(difluoromethyl)pyrimidine-2-yl)-6-methylpyridine-2-yl)amino)-5-azaspiro[2.4]hept-5-yl)-2-(5-fluoro-2-methoxypyridine-4-yl)propan-1-one] |
| 0.86 | COc1cc([C@@H](C)C(=O)N2C[C@@H](Nc3ccc(-c4cn(C)c(C(C)(C)O)n4)c(C)n3)C3(CC3)C2)c(Cl)cn1 [Compound 182, (R)-2-(5-chloro-2-methoxypyridine-4-yl)-1-((S)-7-((5-(2-(2-hydroxypropan-2-yl)-1-methyl-1H-imidazol-4-yl)-6-methylpyridine-2-yl)amino)-5-azaspiro[2.4]hept-5-yl)propan-1-one] |
| 4.03 | COc1cc([C@@H](C)C(=O)N2C[C@@H](Nc3ccc(-c4cnn(C)n4)c(C)n3)C3(CC3)C2)c(Cl)cn1 [Compound 166, (R)-2-(5-chloro-2-methoxypyridine-4-yl)-1-((S)-7-((6-methyl-5-(2-methyl-2H-1,2,3-triazol-4-yl)pyridine-2-yl)amino)-5-azaspiro[2.4]hept-5-yl)propan-1-one] |
| 1.59 | COc1cc([C@@H](C)C(=O)N2C[C@@H](Nc3ccc(-c4cn(C)c(C(C)(C)O)n4)c(C)n3)C3(CC3)C2)c(F)cn1 [Compound 181, (R)-2-(5-fluoro-2-methoxypyridine-4-yl)-1-((S)-7-((5-(2-(2-hydroxypropan-2-yl)-1-methyl-1H-imidazol-4-yl)-6-methylpyridine-2-yl)amino)-5-azaspiro[2.4]hept-5-yl)propan-1-one] |
| 4.9 | COc1cc([C@@H](C)C(=O)N2C[C@@H](C)[C@H](Nc3ccc(-c4ncccn4)c(C)n3)C2)c(Cl)cn1 [Compound 198, (R)-2-(5-chloro-2-methoxypyridine-4-yl)-1-((3R,4S)-3-methyl-4-((6-methyl-5-(pyrimidine-2-yl)pyridine-2-yl)amino)pyrrolidine-1-yl)propan-1-one] |

Test system: not listed separately
Assay: Pharmacokinetic study on the tested compound in SD male rats
Format: in vivo
Conditions: IV 1 mpk/PO 2 mpk
Procedure: On the day of administration, the tested compound was prepared with 5% DMSO + 5% Solutol + 90% Saline as a solvent into a solution for administration for use.
The solution for administration was administered to an intravenous injection IV group at a dose of 1 mg/kg in a concentration of 0.2 mg/mL. The solution for administration was administered to an oral gavage PO group at a dose of 2 mg/kg in a concentration of 0.2 mg/mL. The animals in the PO group were required to fast overnight in advance, drink water freely, and be fed 4 hours after administration. The IV group was not required to fast.
The animals were weighed before administration. On the day of administration, the solution was IV/PO-administered once in an administration amount calculated based on the weight. In the IV group, blood was collected from veins at 0.083 h, 0.25 h, 0.5 h, 1.0 h, 2.0 h, 4.0 h, 8.0 h, and 24 h after administration. In the PO group, blood was collected from veins at 0.25 h, 0.5 h, 1.0 h, 2.0 h, 4.0 h, 6.0 h, 8.0 h, and 24 h after administration. The amount of blood collected was about 0.20 mL. K2-EDTA was used in blood collection tubes as an anticoagulant. The collected blood sample was centrifuged (centrifugation conditions: 6800 g, 6 min, 2°C to 8°C) within 1 h to obtain plasma. The to-be-tested sample was stored in a refrigerator at -80°C before analysis.
The concentration of the tested compound in the plasma of the SD male rats was detected by the validated LC-MS/MS method.

| F [%] | Compound |
| --- | --- |
| 11.1 | COc1cc([C@@H](C)C(=O)N2CC[C@H](Nc3ccc(-c4cn(C)c(OC(F)F)n4)c(C)n3)C2)c(F)cn1 [Compound 197, (R)-1-((S)-3-((5-(2-(difluoromethoxy)-1-methyl-1H-imidazol-4-yl)-6-methylpyridine-2-yl)amino)pyrrolidine-1-yl)-2-(5-fluoro-2-methoxypyridine-4-yl)propan-1-one] |

Same assay, conditions: Sprague-Dawley (SD), rat, plasma, IV 1 mpk/PO 2 mpk

| AUC [ng·h/mL] | Cmax [ng/mL] | clearance [mL/min/kg] | half-life [h] | Compound |
| --- | --- | --- | --- | --- |
| 43 | 35 | 86.9 | 1.2 | COc1cc([C@@H](C)C(=O)N2CC[C@H](Nc3ccc(-c4cn(C)c(OC(F)F)n4)c(C)n3)C2)c(F)cn1 [Compound 197, (R)-1-((S)-3-((5-(2-(difluoromethoxy)-1-methyl-1H-imidazol-4-yl)-6-methylpyridine-2-yl)amino)pyrrolidine-1-yl)-2-(5-fluoro-2-methoxypyridine-4-yl)propan-1-one] |
